Source: patent publication US8153787B2 (priority 2005, dated 2012)
≈ marks a conversion by molar mass, not a printed value. Read-outs that look alike come from different tables or passages of the source.

How the values were obtained:
Vaccinia virus [1] = experiment: microbe, parasite or virus in culture; format: cell-based; conditions: Orthopoxvirus vaccinia, read-out: EC50 vaccinia virus
in vitro [2] = conditions: human
[3] = test system: herpes simplex virus type 2 (HSV-2); experiment: microbe, parasite or virus in culture; format: cell-based; conditions: Human alphaherpesvirus 2, HEL, read-out: EC50 HSV-2 (G strain)
[4] = test system: herpes simplex virus type 1 (HSV-1); experiment: microbe, parasite or virus in culture; format: cell-based; conditions: Human alphaherpesvirus 1, HEL, read-out: EC50 HSV-1 (Kos strain)
Vaccinia virus [5] = experiment: organism not typed; format: cell-based; conditions: HEL
murine polyomavirus = experiment: microbe, parasite or virus in culture; format: cell-based; conditions: for EC50: Alphapolyomavirus muris, UC1, UC1B
in vitro [6] = conditions: human; remark: listed apart in the source
HSB-2 cells = conditions: human
Cowpox virus (Brighton) = experiment: microbe, parasite or virus in culture; format: cell-based; conditions: Cowpox virus, HEL, read-out: EC50 Cowpox virus Brighton
[7] = test system: primate polyomavirus (SV40); experiment: microbe, parasite or virus in culture; format: cell-based, simian polyomavirus SV40; conditions: for EC50: Polyomavirus sp., BSC-1, in Primates
in vitro [8] = conditions: human; remark: listed apart in the source
MOLT-3 cells = conditions: human
[9] = test system: Varicella-Zoster Virus (VZV); experiment: microbe, parasite or virus in culture; format: cell-based; conditions: Human alphaherpesvirus 3, HEL
in vitro [10] = conditions: African green monkey
HEL cells = conditions: HEL cells, microscopy
[11] = test system: Human Cytomegalovirus (HCMV); experiment: microbe, parasite or virus in culture; format: cell-based
in vitro [12] = conditions: mouse
Orf virus (NZ2) = experiment: microbe, parasite or virus in culture; format: cell-based; conditions: Orf virus, HEL, read-out: EC50 Orf virus NZ2
[13] = read-out: antiviral activity (EC50) 2PTA2
[14] = read-out: antiviral activity (EC50) MN/RDE Toronto
[15] = read-out: antiviral activity (EC50) SV40 PML-1 strain EK
[16] = read-out: antiviral activity (EC50) SV40 PML-2 strain DAR
[17] = read-out: antiviral activity (EC50) SV40 strain A2895

SMILES	selectivity index 2PTA2 (murine polyomavirus)	selectivity index MN/RDE Toronto (murine polyomavirus)	EC50 (murine polyomavirus; [13]) [µg/mL]	EC50 (murine polyomavirus; [14]) [µg/mL]	Toxicity MCC (microscopy), HSB-2 cells (HSB-2 cells) [µg/mL]	selectivity index SV40 PML-1 strain EK [7]	selectivity index SV40 PML-2 strain DAR [7]	selectivity index SV40 strain A2895 [7]	EC50 [7, 15] [µg/mL]	EC50 [7, 16] [µg/mL]	EC50 [7, 17] [µg/mL]	CC50 (in vitro [10]) [µg/mL]	CC50 (in vitro [12]) [µg/mL]	also measured
NC1=NC(=O)N(C[C@@H](CO)OCP(=O)(O)O)CN1 [5,6-dihydro derivative of HPMP-5-azaC, (S)-1-[3-Hydroxy-2-(phosphonomethoxy)propyl]-5,6-dihydro-5-azacytosine]														EC50 (Vaccinia virus [1]): 38 µg/mL (≈ 135 µM); CC50 (in vitro [2]): 120 µg/mL (≈ 425 µM)
Nc1nc2c(ncn2COCCO)c(=O)[nH]1 [Acyclovir, reference compound]														EC50 [3]: 0.032 µg/mL (≈ 0.142 µM); EC50 [4]: 0.032 µg/mL (≈ 0.142 µM)
NC(=NC(=O)NC[C@@H](CO)OCP(=O)(O)O)NC=O.[Na] [Compound 3a, Sodium 3-formyl-2-{[(2S)-3-hydroxy-2-(phosphono-methoxy)propyl]carbamoyl}guanidine]	>13	>26	14.8	7.57	>200	>20	>24	>34	10	8.24	5.92	> 200	> 200	EC50 (Vaccinia virus [5]; read-out: EC50 Vaccinia Virus Lister): 7.61 µg/mL; EC50 (Vaccinia virus [5]; Orthopoxvirus vaccinia, read-out: EC50 Vaccinia Virus Copenhagen): 5.84 µg/mL; EC50 (Vaccinia virus [5]; Orthopoxvirus vaccinia, read-out: EC50 Vaccinia Virus Lederle): 7.97 µg/mL; EC50 (Vaccinia virus [5]; Orthopoxvirus vaccinia, read-out: EC50 Vaccinia Virus WR): 6.34 µg/mL; CC50 (in vitro [6]): > 100 µg/mL; EC50 (Cowpox virus (Brighton)): 12.6 µg/mL; CC50 at 3 days (in vitro [8]): > 50 µg/mL; Toxicity MCC (microscopy), MOLT-3 cells (MOLT-3 cells): 200 µg/mL; EC50 ([9]; read-out: EC50 VZV 07/1 strain (HEL cells)): 0.046 µg/mL; EC50 ([9]; read-out: EC50 VZV OKA strain (HEL cells)): 0.042 µg/mL; Toxicity MCC (microscop) (HEL cells): >100 µg/mL; EC50 ([11]; Human betaherpesvirus 5, AD169, HEL, read-out: EC50 HCMV AD-169 strain (HEL cells)): 0.1 µg/mL; EC50 ([11]; Human betaherpesvirus 5, HEL, read-out: EC50 HCMV Davis strain (HEL cells)): 0.12 µg/mL; EC50 (Orf virus (NZ2)): 0.37 µg/mL
NC(N)=NC(=O)NC[C@@H](CO)OCP(=O)(O)O [Compound 10, 2-{[(2S)-3-Hydroxy-2-(Phosphonomethoxy)propyl]carbamoyl}guanidine]	1	1	> 200	> 200	>200	1	1	1	> 200	> 200	> 200	> 200	> 200	selectivity index LID-1 (murine polyomavirus): 1; selectivity index PTA (murine polyomavirus): 1; EC50 (murine polyomavirus; read-out: antiviral activity (EC50) LID-1): > 200 µg/mL; EC50 (murine polyomavirus; read-out: antiviral activity (EC50) PTA): > 200 µg/mL
